What all share (assay type): biochemical
One assay has as its target HIV-1 RT (Human immunodeficiency virus type 1 group M subtype B, UniProt P04585). The assay can be described thus: Kinetic analysis of HIV-1 RT inhibition.
The subject of the next assay is HIV-1 RT E138K. The assay can be described thus: Mutant HIV-1 RT assay E138K. Particulars: Poly rC.dG [^3H]dGTP.
A further assay has as its target HSV-1 DNA polymerase (Human herpesvirus 1, UniProt P04293). The assay can be described thus: biochemical. The note with it: varying dGTP, calf thymus DNA.
Another assay concerns HIV-1 RT K65R. The assay can be described thus: Mutant HIV-1 RT assay K65R. Particulars: Poly rC.dG [^3H]dGTP.

Structures are written as SMILES.

HSV-1 DNA polymerase, sequence (P04293 whole entry): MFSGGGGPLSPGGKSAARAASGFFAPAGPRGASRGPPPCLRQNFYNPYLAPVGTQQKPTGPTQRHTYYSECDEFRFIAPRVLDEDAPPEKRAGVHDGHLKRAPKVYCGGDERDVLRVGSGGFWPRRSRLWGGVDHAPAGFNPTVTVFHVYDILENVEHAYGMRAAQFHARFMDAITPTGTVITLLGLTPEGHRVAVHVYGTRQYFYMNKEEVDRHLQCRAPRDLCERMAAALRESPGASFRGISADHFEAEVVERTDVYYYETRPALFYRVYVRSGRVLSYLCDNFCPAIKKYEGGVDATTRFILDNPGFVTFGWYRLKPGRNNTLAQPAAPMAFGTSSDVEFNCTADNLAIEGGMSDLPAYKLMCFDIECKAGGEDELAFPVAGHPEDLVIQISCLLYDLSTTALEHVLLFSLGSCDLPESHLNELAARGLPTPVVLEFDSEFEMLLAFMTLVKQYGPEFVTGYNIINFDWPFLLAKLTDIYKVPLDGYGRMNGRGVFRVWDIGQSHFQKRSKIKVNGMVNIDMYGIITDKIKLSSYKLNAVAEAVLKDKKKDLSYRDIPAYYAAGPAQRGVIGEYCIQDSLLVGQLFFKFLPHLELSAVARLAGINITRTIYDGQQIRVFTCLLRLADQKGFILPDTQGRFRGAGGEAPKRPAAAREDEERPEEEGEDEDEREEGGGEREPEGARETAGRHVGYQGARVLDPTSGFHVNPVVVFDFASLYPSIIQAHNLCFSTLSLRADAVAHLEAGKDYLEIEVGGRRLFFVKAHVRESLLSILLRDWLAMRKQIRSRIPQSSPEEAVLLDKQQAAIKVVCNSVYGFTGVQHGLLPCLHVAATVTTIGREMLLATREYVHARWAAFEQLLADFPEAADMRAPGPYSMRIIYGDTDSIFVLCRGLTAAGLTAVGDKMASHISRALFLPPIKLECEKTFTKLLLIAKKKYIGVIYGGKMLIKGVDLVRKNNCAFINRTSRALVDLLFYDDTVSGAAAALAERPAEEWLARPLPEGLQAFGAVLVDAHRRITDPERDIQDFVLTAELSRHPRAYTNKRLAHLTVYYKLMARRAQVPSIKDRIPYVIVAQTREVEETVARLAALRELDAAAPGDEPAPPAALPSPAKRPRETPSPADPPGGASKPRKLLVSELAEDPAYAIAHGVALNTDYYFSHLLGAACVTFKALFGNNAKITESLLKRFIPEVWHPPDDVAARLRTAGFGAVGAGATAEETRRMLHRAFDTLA

Consider `Nc1nc2c(ncn2[C@@H]2CC[C@H](OC(C(=O)O)P(=O)(O)O)C2)c(=O)[nH]1` (mixture of isomers) [(L,D)-(±)G-α-CNP, cis-9-{4-[Carboxy(phosphono)methoxy]cyclopentan-1-yl}guanine], for which the Ki on HIV-1 RT (competitive model, varying dGTP, poly rC.dG) is 455 nM; at HIV-1 RT (competitive model, varying poly rC.dG), 35 nM; at HIV-1 RT (mixed model enzyme inhibition, varying dGTP, poly rC.dG), 944 nM; on HIV-1 RT (mixed model enzyme inhibition, varying poly rC.dG), 832 nM; on HIV-1 RT (non-competitive model, varying dGTP, poly rC.dG), 1300 nM; at HIV-1 RT (non-competitive model, varying poly rC.dG), 169 nM. Further, the Ki on HSV-1 DNA polymerase (competitive model) amounted to 521 nM; on HSV-1 DNA polymerase (mixed model enzyme inhibition), 9280 nM; on HSV-1 DNA polymerase (non-competitive model) it was 4170 nM. Also, the “Most likely mode of inhibition” value on HIV-1 RT (varying dGTP, poly rC.dG) is recorded as “Competitive”; on HIV-1 RT (varying poly rC.dG), “Non-competitive”; on HSV-1 DNA polymerase it was “Non-competitive”. Further, the “α (alpha-value), mixed model enzyme inhibition” value came out at 1.799 on HIV-1 RT (varying dGTP, poly rC.dG); 0.147 on HIV-1 RT (varying poly rC.dG); 0.386 at HSV-1 DNA polymerase. The “Fold-resistance compared to wild-type” value in the assay on HIV-1 RT E138K is on record as 0.9 fold; in the assay with HIV-1 RT K65R it was 2.1 fold.

Source of the values: paper PMC5557014 (Biochemical pharmacology, 2017).
